Measurements published in patent publication US11311485B2, “Self-assembled particles for targeted delivery of immunomodulators to treat autoimmunity and cancer” (UNIVERSITY OF MARYLAND, BALTIMORE COUNTY, priority 2018, dated 2022).

Assay: Loading capacity of filomicelles (PEG PPS) with other immunosuppressives used in lupus
Assay type: physicochemical
Settings: drug per mg of filomicelles, FIG. 10
Description: Transmission electron microscopy (TEM) images of loaded and unloaded FMs show no difference in morphology or structure, as shown in FIG. 3.

Cn1cnc([N+](=O)[O-])c1Sc1ncnc2nc[nH]c12 [AZA, azathioprine]
loading into filomicelles (PEG-PPS): ~400 µg/mg
